Measurements reported in article PMC6978316, “Development of chimeric peptides to facilitate the neutralisation of lipopolysaccharides during bactericidal targeting of multidrug-resistant Escherichia coli” (Communications Biology, 2020).
Where a SMILES comes first, the peptide text is derived from it. Bridges are numbered along the chain shown (N, C = ends).

System: E. coli CVCC1515
Experiment: MIC, microtiter broth dilution
Type: cell-based, Escherichia coli
Details: 37 °C, 16–18 h, three independent experiments
Protocol: The MIC values of A6, G6, the parental peptides (N6 and LBP14), LBPN6, scramble controls (N6CK, A6CK, and G6CK), and PMB were determined by the microtiter broth dilution method. The tested strains included Gram-negative bacteria, Gram-positive bacteria, and fungi and were cultured to the logarithmic growth phase, diluted to 10^5 CFU per ml, and added into 96-well plates (90 μl per well). Peptides or antibiotic were diluted with PBS by 2-fold dilution and were added to each well (10 μl per well). Polymyxin B (PMB) and PBS were used as the positive and negative control, respectively. […] All experiments were repeated three times.

**Q.** For `CC(C)[C@@H]1NC(=O)CNC(=O)[C@H](CC(N)=O)NC(=O)[C@H](CCCNC(=N)N)NC(=O)[C@H](Cc2ccc(O)cc2)NC(=O)[C@H](C(C)C)NC(=O)[C@@H](NC(=O)[C@@H](NC(=O)[C@H](CC(N)=O)NC(=O)[C@H](Cc2c[nH]c3ccccc23)NC(=O)[C@H](C)NC(=O)[C@H](Cc2ccccc2)NC(=O)CNC(=O)[C@H](CO)NC(=O)CNC(=O)CNC(=O)CNC(=O)CNC(=O)[C@H](CCCCN)NC(=O)[C@H](Cc2ccccc2)NC(=O)[C@H](Cc2ccccc2)NC(=O)[C@H](CO)NC(=O)[C@H](C)NC(=O)[C@H](CCCNC(=N)N)NC(=O)[C@@H](NC(=O)[C@H](CCCCN)NC(=O)[C@H](Cc2c[nH]c3ccccc23)NC(=O)[C@H](CCCNC(=N)N)NC(=O)CNC(=O)[C@H](CCC(N)=O)NC(=O)[C@@H](NC(=O)[C@@H](N)CCCNC(=N)N)C(C)C)C(C)C)C(C)C)CSSC[C@@H](C(=O)N[C@@H](Cc2c[nH]cn2)C(=O)N[C@@H](CCCNC(=N)N)C(=O)N[C@@H](CCCNC(=N)N)C(=O)N[C@@H](C)C(=O)N[C@@H](CC(N)=O)C(=O)O)NC(=O)[C@H](C(C)C)NC(=O)[C@H](CCCNC(=N)N)NC1=O` [G6] (H-RVQGRWKVRASFFKGGGGSGFAWNVCVYRNGVRVCHRRAN-OH; disulfide 26-35), which MIC is on record?
**A.** 16 μg per ml
